Test results published in paper PMC12040169 (PLOS Biology, 2025).

Assay: in vitro
Conditions: human, hela cells, % viability

Structure (SMILES)	viability at 28.5 h, 10 µM
CC[C@H]1CN(C(=O)Nc2ccccc2)CC[C@H]1CC(=O)N(C)CC#N [CBK288777]	101%
CC[C@H]1CN(S(=O)(=O)c2c(C)noc2C)CC[C@H]1CC(=O)Nc1nccs1 [CBK288779]	88.3%
CCCNC(=O)C[C@@H]1CCN(S(=O)(=O)c2c(C)noc2C)C[C@@H]1CC [CBK288780]	103%
O=C(O)C[C@@H]1CCN(C(=O)C2CCCCC2)C[C@@H]1CCN1CCCCC1 [CBK288781]	90.1%
COc1ccc(C(=O)N2CC[C@H]3CC(=O)N(CCNC(C)=O)CC[C@H]3C2)cc1 [CBK288784]	78.8%
O=C1C[C@@H]2CCN(C(=O)Nc3cccc(C(F)(F)F)c3)C[C@@H]2CCN1CCc1c[nH]cn1 [CBK288786]	105%
COc1cccc(NC(=O)N2CC[C@H]3CC(=O)N(c4ccccc4)CC[C@H]3C2)c1 [CBK288787]	95.4%
CC(C)N1CC[C@H]2CN(C(=O)CCC(=O)O)CC[C@H]2CC1=O [CBK288789]	87.8%
O=C1C[C@@H]2CCN(C(=O)COc3ccccc3)C[C@@H]2CCN1Cc1cccnc1 [CBK288793]	82%
C=CCNC(=O)N1CC[C@H]2CC(=O)N(Cc3ccc4c(c3)OCO4)CC[C@H]2C1 [CBK288794]	97.8%
COc1ccc(C(=O)N2CC[C@H]3CC(=O)N(CCN4CCNC4=O)CC[C@H]3C2)cc1 [CBK288795]	110%
CC(C)(C)c1cc(C[C@H]2CNCC[C@H]2CC(=O)Nc2nccs2)no1 [CBK288798]	81%
CC(C)(C)c1cc(C[C@H]2CNCC[C@H]2CC(=O)N2CCN(c3ccccn3)CC2)no1 [CBK288799]	87.4%
O=C(C[C@@H]1CCNC[C@@H]1Cc1cc(-c2ccc(F)cc2)on1)Nc1ccccc1 [CBK288801]	96.4%
CC(C)(C)NC(=O)C[C@@H]1CCNC[C@@H]1Cc1cc(-c2ccc(F)cc2)on1 [CBK288802]	99.2%
Cc1nn(CCC#N)c(C)c1[C@@H]1C=C[C@@H](NS(=O)(=O)c2ccccc2)C1 [CBK288805]	91%
Cc1nn(-c2cccc(Br)c2)c(C)c1[C@@H]1C=C[C@@H](NS(C)(=O)=O)C1 [CBK288806]	86.3%
COc1ccc(CN[C@H]2[C@H](O)[C@@H](N3CCN(C(C)=O)CC3)[C@@H]3OC[C@H]2O3)cc1 [CBK288808]	96.9%
CC(=O)N1CCN([C@H]2[C@@H]3OC[C@@H](O3)[C@@H](NC(=O)NC3CCCCC3)[C@@H]2O)CC1 [CBK288810]	101%
O=C(Nc1cccc(C(F)(F)F)c1)N[C@H]1[C@H](O)[C@@H](Oc2ccccc2)[C@@H]2OC[C@H]1O2 [CBK288811]	106%
C=CCNC(=O)N[C@H]1[C@H](O)[C@@H](Oc2ccccc2)[C@@H]2OC[C@H]1O2 [CBK288812]	90.5%
COc1ccc(NC(=O)N[C@H]2[C@H](O)[C@@H](Sc3ccccc3)[C@@H]3OC[C@H]2O3)cc1 [CBK288813]	96.4%
O[C@H]1[C@H](NCc2ccccn2)[C@H]2CO[C@H](O2)[C@@H]1N1CCC(Cc2ccccc2)CC1 [CBK288814]	87.2%
CCNC(=O)N[C@H]1[C@H](O)[C@@H](N(CC)CC)[C@@H]2OC[C@H]1O2 [CBK288816]	113%
COc1ccc(NC(=O)N[C@H]2[C@H](O)[C@@H](N3CCOCC3)[C@@H]3OC[C@H]2O3)cc1 [CBK288820]	101%

Structure (SMILES)	viability at 28.5 h, 10 µM
O=C(NC1CCCCC1)N[C@H]1[C@H](O)[C@@H](N2CCN(c3ccccc3)CC2)[C@@H]2OC[C@H]1O2 [CBK288822]	95%
CN1CCN([C@H]2[C@@H]3OC[C@@H](O3)[C@@H](NCc3ccc(CO)o3)[C@@H]2O)CC1 [CBK288823]	91.5%
CN1CCN([C@H]2[C@@H]3OC[C@@H](O3)[C@@H](NCc3ccc(N(C)C)cc3)[C@@H]2O)CC1 [CBK288824]	109%
O=C(Nc1ccc(F)cc1)N[C@H]1[C@H](O)[C@@H](N2CCCCC2)[C@@H]2OC[C@H]1O2 [CBK288826]	98.5%
COc1ccc(CN[C@H]2[C@H](O)[C@@H](N3CCCC3)[C@@H]3OC[C@H]2O3)cc1 [CBK288827]	88.6%
O=C(Nc1cccc(C(F)(F)F)c1)N[C@H]1[C@H](O)[C@@H](N2CCCC2)[C@@H]2OC[C@H]1O2 [CBK288828]	105%
C=CCNC(=O)N[C@H]1[C@H](O)[C@@H](N2CCCC2)[C@@H]2OC[C@H]1O2 [CBK288829]	92.6%
NC(=O)C1CCN([C@H]2[C@@H]3OC[C@@H](O3)[C@@H](NCc3ccc(F)cc3)[C@@H]2O)CC1 [CBK288830]	91.2%
O=S(=O)(Cc1noc([C@@H]2C[C@@H](O)CN2Cc2ccc(F)cc2)n1)c1ccc(F)cc1 [CBK288831]	118%
OCc1ccc(CN2C[C@H](O)C[C@H]2c2nc(-c3cnccn3)no2)o1 [CBK288832]	91.9%
O=[N+]([O-])c1ccc(CN2C[C@H](O)C[C@H]2c2nc(-c3ccccc3)no2)cc1 [CBK288833]	108%
COCc1cn(C[C@H]2CC3CCN2C[C@@H]3C(=O)NC2CC2)nn1 (some centres unmarked) [CBK288835]	98.6%
O[C@H]1CN[C@H](c2nc(-c3ccc(OC(F)(F)F)cc3)no2)C1 [CBK288836]	112%
Cc1cccc(-c2noc([C@@H]3C[C@@H](O)CN3Cc3ccccn3)n2)c1 [CBK288837]	98.2%
Cc1ccc(S(=O)(=O)Cc2noc([C@@H]3C[C@@H](O)CN3CC3CCCCC3)n2)cc1 [CBK288841]	115%
COc1ccc(-c2noc([C@@H]3C[C@@H](O)CN3C3CCOCC3)n2)cc1 [CBK288844]	83.7%
CC(=O)N1CCC(N2C[C@H](O)C[C@H]2c2nc(-c3cccc([N+](=O)[O-])c3)no2)CC1 [CBK288846]	90.5%
OCc1ccc(CN2C[C@H](O)C[C@H]2c2nc(-c3ccc(F)cc3)no2)o1 [CBK288848]	106%
COc1ccccc1C(=O)N[C@H]1C[C@@H](c2nc(-c3cnccn3)no2)N(C)C1 [CBK288850]	96%
CN1C[C@@H](NC(=O)Nc2ccccc2)C[C@H]1c1nc(-c2cnccn2)no1 [CBK288851]	87.5%
COc1cccc(NC(=O)N[C@H]2C[C@@H](c3nc(-c4ccccn4)no3)N(C)C2)c1 [CBK288853]	108%
CN1C[C@@H](NC(=O)c2ccc3c(c2)OCO3)C[C@H]1c1nc(-c2ccc(Cl)cc2)no1 [CBK288854]	90.6%
CN1C[C@@H](NC(=O)Nc2cccc(C#N)c2)C[C@H]1c1nc(-c2ccncc2)no1 [CBK288856]	112%
CN1C[C@@H](NC(=O)c2cccnc2)C[C@H]1c1nc(-c2cccnc2)no1 [CBK288857]	86.7%
CN1C[C@@H](NC(=O)Nc2ccccc2)C[C@H]1c1nc(Cc2ccccc2)no1 [CBK288860]	85.2%

Structure (SMILES)	viability at 28.5 h, 10 µM
N#Cc1cccc(CN2C[C@H](O)C[C@H]2c2nc(-c3ccc4c(c3)OCO4)no2)c1 [CBK288866]	90%
O[C@@H]1C[C@@H](c2nc(-c3ccc4c(c3)OCO4)no2)N(Cc2cc3ccccc3o2)C1 [CBK288868]	83.9%
CN1C[C@@H](NC(=O)c2ccc3c(c2)OCO3)C[C@H]1c1nc(-c2ccccc2)no1 [CBK288876]	108%
CN1CCC(N2CCC[C@H]2c2nc(-c3ccnc(N4CCOCC4)c3)no2)CC1 [CBK288880]	94.4%
CC(C)N1CCC[C@H]1c1nc(-c2ccc(N3CCN(C)CC3)nc2)no1 [CBK288881]	83.6%
NC(=O)C1CCN(c2ccc(-c3noc([C@@H]4CCCN4Cc4cccnc4)n3)cn2)CC1 [CBK288882]	108%
CS(=O)(=O)Nc1cc(-c2noc([C@@H]3CCCN3Cc3ccccn3)n2)ccn1 [CBK288885]	87.3%
CC(=O)Nc1ccc(CN2CCC[C@H]2c2nc(-c3ccnc(NS(C)(=O)=O)c3)no2)cc1 [CBK288888]	109%
CS(=O)(=O)Nc1cc(-c2noc([C@@H]3CCCN3Cc3ccc(S(C)(=O)=O)cc3)n2)ccn1 [CBK288890]	90.7%
CC(C)CN1CCC[C@H]1c1nc(-c2ccc(-n3ccnc3)nc2)no1 [CBK288894]	88.5%
c1csc(CN2CCC[C@H]2c2nc(-c3ccc(-n4ccnc4)nc3)no2)c1 [CBK288895]	111%
O=C(O)c1ccc(CN2CCC[C@H]2c2nc(-c3ccc(F)cn3)no2)cc1 [CBK288896]	96.9%
COc1ccc(CN2CCC[C@H]2c2nc(-c3ccc(OC)nc3)no2)c(O)c1 [CBK288898]	92%
O[C@@H]1C[C@@H](c2nc(-c3ccccn3)no2)N(Cc2ccccc2)C1 [CBK288900]	81.3%
Nc1ncncc1-c1noc([C@@H]2CCCN2c2ncccn2)n1 [CBK288901]	111%
CN(C)c1ccc(-c2noc([C@@H]3CCCN3C3CCOCC3)n2)cn1 [CBK288903]	93.8%
O=C(NC[C@H]1O[C@@H](CC(=O)N2CCN(c3ccccn3)CC2)[C@H](O)[C@@H]1O)C1CC1 [CBK288904]	107%
O=C(C[C@@H]1O[C@H](CNCc2cccc(Cl)c2)[C@@H](O)[C@H]1O)N1CCOCC1 [CBK288905]	77.3%
O=C(NC[C@H]1O[C@@H](CC(=O)N2CCCC2)[C@H](O)[C@@H]1O)c1cccc(F)c1 [CBK288908]	88.3%
Cc1ccc(S(=O)(=O)NC[C@H]2O[C@@H](CC(=O)N3CCCC3)[C@H](O)[C@@H]2O)cc1 [CBK288910]	112%
O=C(C[C@@H]1O[C@H](CNS(=O)(=O)c2ccc(Cl)cc2)[C@@H](O)[C@H]1O)N1CCCC1 [CBK288911]	94.2%
O=C(NC[C@H]1O[C@@H](CC(=O)N2CCCC2)[C@H](O)[C@@H]1O)c1ccc(F)c(Cl)c1 [CBK288913]	90.9%
O=C(C[C@@H]1O[C@H](CNCc2cccc(Cl)c2)[C@@H](O)[C@H]1O)N1CCc2ccccc21 [CBK288918]	89%
O=C(NC[C@H]1O[C@@H](CC(=O)N2CCN(c3ccccc3)CC2)[C@H](O)[C@@H]1O)c1ccccc1 [CBK288920]	108%
